Experimental data as given in patent US10526347B2, “3-(3H-imidazo[4,5-B]pyridin-2-yl)-1H-pyrazolo[3,4-B]pyridine and therapeutic uses thereof” (Samumed, LLC, priority 2014, dated 2020).
pEC50, pIC50: −log10 of the molar value.

How the values were obtained:
[1] = test system: Wnt activity (SW480 colon carcinoma cells stably expressing the Sp5-Luc reporter gene); assay: Sp5-Luc reporter gene screening assay for Wnt activity; format: cell-based; settings: Homo sapiens
Summary of the method: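 The SW480 cells carry a lentiviral luciferase reporter driven by a Sp5 promoter with eight TCF/LEF sites. They were plated at 10,000 cells/well in 10% FCS overnight, then pinned with 50 nl of 3-fold dilutions (10 mM top source concentration) into 50 μl.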

[2] = test system: primary human fibroblasts derived from IPF patients (LL29 cells); assay: Inhibition of the fibrotic process in TGF-β1 treated IPF patient fibroblasts (αSMA staining); format: cell-based; settings: Fibroblast, 96 h, LL29 cells treated with TGF-β1 (20 ng/mL), 4 days, read-out: Inhibition of fibrosis EC50
Text: The above synthesized compounds were screened using primary human fibroblasts (derived from IPF patients) treated with TGF-β1 to determine their ability to inhibit the fibrotic process.
Primary human fibroblasts derived from IPF patients (LL29 cells) [^1Xiaoqiu Liu, et. al., “Fibrotic Lung Fibroblasts Show Blunted Inhibition by cAMP Due to Deficient cAMP Response Element-Binding Protein Phosphorylation”, Journal of Pharmacology and Experimental Therapeutics (2005), 315(2), 678-687; ^2Watts, K. L., et. al., “RhoA signaling modulates cyclin D1 expression in human lung fibroblasts; implications for idiopathic pulmonary fibrosis”, Respiratory Research (2006), 7(1), 88] were obtained from American Type Culture Collection (ATCC) and expanded in F12 medium supplemented with 15% Fetal Bovine Serum and Penicillin/Streptomycin.
Each compound was dissolved in DMSO as a 10 mM stock and used to prepare compound source plates. Serial dilution (1:2, 11-point dose-response curves from 10 μM to 1.87 nM) and compound transfer was performed using the ECHO 550 (Labcyte, Sunnyvale, Calif.) into 384-well clear bottom assay plates (Greiner Bio-One) with appropriate DMSO backfill for a final DMSO concentration of 0.1%. LL29 cells were plated at 1,500 cells/well in 80 μl/well F12 medium supplemented with 1% Fetal Bovine Serum. One hour after addition of the cells, TGF-β1 (Peprotech; 20 ng/mL) was added to the plates to induce fibrosis (ref. 1 and 2 above). Wells treated with TGF-β1 and containing DMSO were used as controls. Cells were incubated at 37° C. and 5% CO2 for 4 days. Following incubation for 4 days, SYTOX green nucleic acid stain (Life Technologies [Thermo Fisher Scientific]) was added to the wells at a final concentration of 1 uM and incubated at room temperature for 30 min. Cells were then fixed using 4% formaldehyde (Electron Microscopy Sciences), washed 3 times with PBS followed by blocking and permeabilization using 3% Bovine Serum Albumin (BSA; Sigma) and 0.3% Triton X-100 (Sigma) in PBS. Cells were then stained with antibody specific to α-smooth muscle actin (αSMA; Abcam) (ref. 1 and 2 above) in 3% Bovine Serum Albumin (BSA; Sigma) and 0.3% Triton X-100 (Sigma) in PBS, and incubated overnight at 4° C. Cells were then washed 3 times with PBS, followed by incubation with Alexa Flor-647 conjugated secondary antibody (Life Technologies [Thermo Fisher Scientific]) and DAPI at room temperature for 1 hour. Cells were then washed 3 times with PBS and plates were sealed for imaging. αSMA staining was imaged by excitation at 630 nm and emission at 665 nm and quantified using the Compartmental Analysis program on the CellInsight CX5 (Thermo Scientific). Dead or apoptotic cells were excluded from analysis based on positive SYTOX green staining. % of total cells positive for αSMA were counted in each well and normalized to the average of 11 wells treated with TGF-β1 on the same plate using Dotmatics' Studies Software. The normalized averages (fold change over untreated) of 3 replicate wells for each compound concentration were used to create dose-responses curves and EC50 values were calculated using non-linear regression curve fit in the Dotmatics' Studies Software. The EC50 values are reported.

Row | pIC50 [1] | SMILES | pEC50 [2]
1 | 7.57 | CC(C)CC(=O)Nc1cncc(-c2cnc3[nH]nc(-c4nc5c(-c6ccc(F)s6)ccnc5[nH]4)c3c2)c1 [Compound 312, N-(5-(3-(7-(5-Fluorothiophen-2-yl)-3H-imidazo[4,5-b]pyridin-2-yl)-1H-pyrazolo[3,4-b]pyridin-5-yl)pyridin-3-yl)-3-methylbutanamide] | 6.72
2 | < 5.00 | Cc1ccc(-c2ccnc3[nH]c(-c4n[nH]c5ncc(-c6cncc(CN7CCCCC7)c6)cc45)nc23)s1 [Compound 351, 3-(7-(5-Methylthiophen-2-yl)-3H-imidazo[4,5-b]pyridin-2-yl)-5-(5-(piperidin-1-ylmethyl)pyridin-3-yl)-1H-pyrazolo[3,4-b]pyridine] | ≤ 5.00
3 | 8.10 | Cc1ccc(-c2ccnc3[nH]c(-c4n[nH]c5ncc(-c6cncc(NC(=O)C7CCCC7)c6)cc45)nc23)s1 [Compound 357, N-(5-(3-(7-(5-Methylthiophen-2-yl)-3H-imidazo[4,5-b]pyridin-2-yl)-1H-pyrazolo[3,4-b]pyridin-5-yl)pyridin-3-yl)cyclopentanecarboxamide] | 5.86
4 | < 5.00 | CC(=O)c1ccc(-c2ccnc3[nH]c(-c4n[nH]c5ncc(-c6cncc(NC(=O)C7CCCCC7)c6)cc45)nc23)s1 [Compound 384, N-(5-(3-(7-(5-Acetylthiophen-2-yl)-3H-imidazo[4,5-b]pyridin-2-yl)-1H-pyrazolo[3,4-b]pyridin-5-yl)pyridin-3-yl)cyclohexanecarboxamide] | ≤ 5.00
5 | < 5.00 | CS(=O)(=O)NCc1cc(F)cc(-c2ccnc3[nH]c(-c4n[nH]c5ncc(-c6cncnc6)cc45)nc23)c1 [Compound 414, N-(3-Fluoro-5-(2-(5-(pyrimidin-5-yl)-1H-pyrazolo[3,4-b]pyridin-3-yl)-3H-imidazo[4,5-b]pyridin-7-yl)benzyl)methanesulfonamide] | ≤ 5.00
6 | 6.89 | CC(C)Nc1cncc(-c2cnc3[nH]nc(-c4nc5c(-c6cc(F)cc(NCCN(C)C)c6)ccnc5[nH]4)c3c2)c1 [Compound 426, N^1-(3-Fluoro-5-(2-(5-(5-(isopropylamino)pyridin-3-yl)-1H-pyrazolo [3,4-b]pyridin-3-yl)-3H-imidazo[4,5-b]pyridin-7-yl)phenyl)-N^2,N^2-dimethylethane-1,2-diamine] | 6.54
7 | < 5.00 | Fc1cccc(-c2ccnc3[nH]c(-c4n[nH]c5ncc(C6CCNCC6)cc45)nc23)c1 [Compound 909, 3-(7-(3-Fluorophenyl)-3H-imidazo[4,5-b]pyridin-2-yl)-5-(piperidin-4-yl)-1H-pyrazolo[3,4-b]pyridine] | ≤ 5.00
8 | 6.66 | Cn1cc(-c2cnc3[nH]nc(-c4nc5c(-c6cccc(F)c6)ccnc5[nH]4)c3c2)cn1 [Compound 912, 3-(7-(3-Fluorophenyl)-3H-imidazo[4,5-b]pyridin-2-yl)-5-(1-methyl-1H-pyrazol-4-yl)-1H-pyrazolo[3,4-b]pyridine] | 6.93
9 | < 5.00 | Fc1cccc(-c2ccnc3[nH]c(-c4n[nH]c5ncc(-c6cncc(OC7CCNCC7)c6)cc45)nc23)c1 [Compound 916, 3-(7-(3-Fluorophenyl)-3H-imidazo[4,5-b]pyridin-2-yl)-5-(5-(piperidin-4-yloxy)pyridin-3-yl)-1H-pyrazolo[3,4-b]pyridine] | ≥ 8.05
10 | < 5.00 | CN(C)CCOc1cncc(-c2cnc3[nH]nc(-c4nc5c(-c6cccc(F)c6)ccnc5[nH]4)c3c2)c1 [Compound 919, 2-((5-(3-(7-(3-Fluorophenyl)-3H-imidazo[4,5-b]pyridin-2-yl)-1H-pyrazolo [3,4-b]pyridin-5-yl)pyridin-3-yl)oxy)-N,N-dimethylethan-1-amine] | ≥ 8.05

Row | SMILES | pIC50 [1] | pEC50 [2]
11 | Fc1cccc(-c2ccnc3[nH]c(-c4n[nH]c5ncc(C6=CCNCC6)cc45)nc23)c1 [Compound 910, 3-(7-(3-Fluorophenyl)-3H-imidazo[4,5-b]pyridin-2-yl)-5-(1,2,3,6-tetrahydropyridin-4-yl)-1H-pyrazolo[3,4-b]pyridine] | < 5.00 | ≤ 5.00
